According to patent US10837062B2, “Method for predicting a treatment response to a CRHR1 antagonist and/or a V1B antagonist in a patient with depressive and/or anxiety symptoms” (Max-Planck-Gesellschaft zur Förderung der Wissenschaften …, priority 2013, dated 2020):

Experiments:
Cor26 CRH mice = assay: REMS activity by EEG/EMG sleep recording in Cor26 CRH mice; conditions: for REMS levels / REMS activity: CRH-overexpressing Cor26 CRH mice, 50 mg/kg/d via drinking water
control littermates (CL) [1] = assay: REMS activity by EEG/EMG sleep recording in control littermates (CL) of Cor26 CRH mice; type: in vivo; conditions: CL animals of Cor26 CRH line; 50 mg/kg/d via drinking water
Method: (§1) Experiments were conducted with two different mouse lines of excessive central CRH secretion and their respective control littermates (CL). Mice of the CRH-COE^CNS line are characterised by CRH-overexpression within the whole CNS, whereas mice of the Cor26 CRH line display a CRH-overexpression specific to CRH-ergic neurons of the CNS. Three different CRHR1 antagonists were tested. […] In all cases, animals were left to recover from EEG/EMG-electrode implantation for two weeks, after which two days of baseline recording were initiated. Treatment with CRH-R1 antagonist or respective vehicle control commenced thereafter for five consecutive days. Antagonists were applied through the drinking water at a daily dose of 50 mg/kg body weight. EEG and EMG recordings were manually scored as wake, non-REMS (NREMS), and REMS in four second epochs by an experienced evaluator.

control littermates (CL) [2] = assay: REMS activity by EEG/EMG sleep recording in control littermates (CL) of CRH-COE^CNS mice; type: in vivo; conditions: CL mice of CRH-COE^CNS line; 50 mg/kg/d via drinking water
Method: as §1

CRH-COE^CNS mice = assay: REMS activity by EEG/EMG sleep recording in CRH-COE^CNS mice; conditions: for REMS activity: 50 mg/kg/d via drinking water, treatment days vs baseline, significant from treatment day two (DMP-696 P<0.05; SSR125543 P≤0.035)

SMILES | REMS levels / REMS activity (Cor26 CRH mice; 50 mg/kg/day) | REMS levels / REMS activity (Cor26 CRH mice; listed as CP-316311, 50 mg/kg/day) | REMS levels, area under the curve (AUC) within the light period (Cor26 CRH mice; Cor26 CRH mice, baseline vs treatment day three, P=0.006) | REMS levels in control littermates (control littermates (CL) [1]) | REMS activity in control littermates (control littermates (CL) [2]) | treatment day of strongest suppression of REMS activity (CRH-COE^CNS mice; CRH-COE^CNS animals, 50 mg/kg/d) | REMS suppression relative to baseline REMS-levels of CL (CRH-COE^CNS mice; CRH-COE^CNS mice, 50 mg/kg/d) | REMS activity (CRH-COE^CNS mice; CRH-COE^CNS mice, 50 mg/kg/day) | REMS activity (CRH-COE^CNS mice; CRH-COE^CNS mice, listed as DMP696, 50 mg/kg/day)
CCC(CC)Oc1cc(C)nc(Oc2c(C)cc(C)cc2C)c1C [CP-316,311] | weak | suppressed | significant decrease | no significant effect | – | – | – | – | –
COCC(COC)Nc1nc(C)nc2c(-c3ccc(Cl)cc3Cl)c(C)nn12 [DMP-696] | – | – | – | – | only a mild suppression | treatment day three | never exceeded baseline REMS-levels of CL | significant decrease | suppressed
